Drawing on patent US20210355106A1, “NEW AMINO-PYRIMIDONYL-PIPERIDINYL DERIVATIVES, A PROCESS FOR THEIR PREPARATION AND PHARMACEUTICAL COMPOSITIONS CONTAINING THEM” (LES LABORATOIRES SERVIER, priority 2018, published 2021), this text covers IC50 and Ki for 18 compounds.

By IC50 is commonly meant the concentration that gives 50% inhibition. A low value points to greater potency in that assay. Broadly, the Ki is the equilibrium dissociation constant of an inhibitor or competing ligand from its target. A lower Ki goes with a stronger hold on the target.

For test [1], the system named is Z138 mantle cell lymphoma tumour cell lines. Description: In vitro cytotoxicity, MTT assay. It counts as cell-based. Conditions: Homo sapiens, Z-138; Z138 cells, exposed to the test compounds for 96 hours. The method, boiled down: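 Z138 cells exposed to compounds for 96 hours, then MTT added for 4 hours. Formazan absorbance at 540 nm serves as the measure of viable cell number.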
A general note: Formazan colour is commonly taken as a measure of viable cells.

Test [2] has as its target T1, USP7 (Homo sapiens, UniProt Q93009, C315A).
T1 construct: 0.25 nM His-His-USP7 (aa208-560, |C315A|) was incubated with compound; His-His (N)
Nature of the test: Inhibition of USP7 by Fluorescence Intensity (FLINT) readings, Ubiquitin-Rhodamine-110 substrate. The class given is biochemical. To be noted: 0.25 nM His-His-USP7 (aa208-560), 60 minutes at 30° C. preincubation; Ki determined from IC50 according to Cer et al. The method in brief: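 His-tagged USP7 (aa208-560, C315A), 0.25 nM, preincubated with compound 60 min at 30 °C in 100 mM Bicine pH 8.0, 0.01% Triton X-100, 1 mM TCEP, 10% DMSO. Ubiquitin-Rhodamine-110 (50 nM or 4 μM) added; kinetic fluorescence (Ex 485/Em 535 nm) over 21 min; IC50 from 11-point curves, Ki derived from IC50.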

T1 sequence (Q93009 208-560 C315A): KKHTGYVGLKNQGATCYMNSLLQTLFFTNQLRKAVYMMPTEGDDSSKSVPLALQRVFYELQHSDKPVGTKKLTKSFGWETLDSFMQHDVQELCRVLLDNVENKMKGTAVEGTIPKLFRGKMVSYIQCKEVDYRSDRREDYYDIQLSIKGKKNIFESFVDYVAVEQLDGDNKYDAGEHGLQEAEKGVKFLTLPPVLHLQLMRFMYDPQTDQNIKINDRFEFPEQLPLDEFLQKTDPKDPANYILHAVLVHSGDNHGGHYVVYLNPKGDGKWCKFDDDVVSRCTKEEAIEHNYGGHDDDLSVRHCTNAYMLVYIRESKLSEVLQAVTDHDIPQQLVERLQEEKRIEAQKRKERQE

Consider `Cc1nc(-c2ccc(C(F)(F)F)nc2)sc1C(=O)N1CC[C@@H](C(=O)N2CCC(O)(Cn3cnc(Oc4cccc(C(F)(F)F)c4)c(N)c3=O)CC2)[C@H](c2ccccc2)C1` [Example 125, 5-amino-3-[[4-hydroxy-1-[(3R,4R)-1-[4-methyl-2-[6-(trifluoromethyl)-3-pyridyl]thiazole-5-carbonyl]-3-phenyl-piperidine-4-carbonyl]-4-piperidyl]methyl]-6-[3-(trifluoromethyl)phenoxy]pyrimidin-4-one], for which the midpoint of inhibition in test [1], the IC50, lay at 26.6 nM. Moreover, the affinity in test [2] corresponds to a Ki of 7.98 nM.

In test [1], `Cc1nc(-c2ccc(N(C)C)nc2)sc1C(=O)N1CC[C@@H](C(=O)N2CCC(O)(Cn3cnc(Oc4cccc(C(F)(F)F)c4)c(N)c3=O)CC2)[C@H](c2ccccc2)C1` [Example 126] registered a concentration for half-maximal inhibition (IC50) of 29.5 nM. Also, in test [2], the affinity, expressed as Ki, was 4.44 nM.

As for `Cn1c(C(=O)N2CC[C@@H](C(=O)N3CCC(O)(Cn4cnc(Oc5ccc(F)cc5)c(N)c4=O)CC3)[C@H](c3ccccc3)C2)c(Cl)c2ccccc21` [Example 127, 5-amino-3-[[1-[(3R,4R)-1-(3-chloro-1-methyl-indole-2-carbonyl)-3-phenyl-piperidine-4-carbonyl]-4-hydroxy-4-piperidyl]methyl]-6-(4-fluorophenoxy)pyrimidin-4-one], the concentration for half-maximal inhibition (IC50) in test [1] worked out at 20.4 nM. The compound also gave a Ki in test [2] of 5.93 nM.

In test [1], `Nc1c(Oc2ccc(F)cc2)ncn(CC2(O)CCN(C(=O)[C@@H]3CCN(C(=O)Nc4ccccc4C(F)(F)F)C[C@H]3c3ccccc3)CC2)c1=O` [Example 128, (3R,4R)-4-[4-[[5-amino-4-(4-fluorophenoxy)-6-oxo-pyrimidin-1-yl]methyl]-4-hydroxy-piperidine-1-carbonyl]-3-phenyl-N-[2-(trifluoromethyl)phenyl]piperidine-1-carboxamide] had an IC50 of 75 nM. In test [2], this compound yielded an inhibitory constant (Ki) of 38.6 nM.

As for `Nc1c(Oc2ccc(F)cc2)ncn(CC2(O)CCN(C(=O)[C@@H]3CCN(C(=O)c4cc(F)cc(F)c4)C[C@H]3c3ccccc3)CC2)c1=O` [Example 129, 5-amino-3-[[1-[(3R,4R)-1-(3,5-difluorobenzoyl)-3-phenyl-piperidine-4-carbonyl]-4-hydroxy-4-piperidyl]methyl]-6-(4-fluorophenoxy)pyrimidin-4-one], the IC50 in test [1] stood at 5.2 nM. Further, the affinity in test [2], expressed as Ki, was 2.87 nM.

In turn, `Nc1c(Oc2ccc(F)cc2)ncn(CC2(O)CCN(C(=O)[C@@H]3CCN(C(=O)c4cc(Cl)cc(Cl)c4)C[C@H]3c3ccccc3)CC2)c1=O` [Example 130] came in with an IC50 in test [1] of 7.5 nM. In addition, the Ki in test [2] amounted to 1.83 nM.

With `Cc1ccc(-c2nc(C)c(C(=O)N3CC[C@@H](C(=O)N4CCC(O)(Cn5cnc(Oc6ccc(CN)cc6)c(N)c5=O)CC4)[C@H](c4ccccc4)C3)s2)cn1` [Example 131], the concentration for half-maximal inhibition (IC50) in test [1] was determined as 5.3 nM. Also, in test [2], the Ki was 0.064 nM.

In test [1], `Nc1c(Oc2ccc(F)cc2)ncn(CC2(O)CCN(C(=O)[C@@H]3CCN(C(=O)C4(c5ccccc5)CC4)C[C@H]3c3ccccc3)CC2)c1=O` [Example 132] gave an IC50 of 47.8 nM. The inhibitory constant (Ki) in test [2] came out at 35.4 nM.

Consider `Nc1c(Oc2ccc(F)cc2)ncn(CC2(O)CCN(C(=O)[C@@H]3CCN(C(=O)c4cncc(Cl)c4)C[C@H]3c3ccccc3)CC2)c1=O` [Example 133, 5-amino-3-[[1-[(3R,4R)-1-(5-chloropyridine-3-carbonyl)-3-phenyl-piperidine-4-carbonyl]-4-hydroxy-4-piperidyl]methyl]-6-(4-fluorophenoxy)pyrimidin-4-one], for which, in test [1], inhibition was half-maximal at 9.8 nM (IC50). This compound had a Ki in test [2] of 1.52 nM.

On to `Nc1c(Oc2ccc(F)cc2)ncn(CC2(O)CCN(C(=O)[C@@H]3CCN(C(=O)c4cncc(F)c4)C[C@H]3c3ccccc3)CC2)c1=O` [Example 134, 5-amino-6-(4-fluorophenoxy)-3-[[1-[(3R,4R)-1-(5-fluoropyridine-3-carbonyl)-3-phenyl-piperidine-4-carbonyl]-4-hydroxy-4-piperidyl]methyl]pyrimidin-4-one], for which, in test [1], the IC50 stood at 17 nM. In test [2], this compound returned a Ki of 3.7 nM.

With `Cc1ccccc1C1(N2CC[C@@H](C(=O)N3CCC(O)(Cn4cnc(Oc5ccc(F)cc5)c(N)c4=O)CC3)[C@H](c3ccccc3)C2)COC1` [Example 138], the IC50 in test [1] turned out to be 24 nM. In test [2], this compound showed a Ki of 45 nM.

In test [1], `COc1ccccc1C1(N2CC[C@@H](C(=O)N3CCC(O)(Cn4cnc(Oc5ccc(F)cc5)c(N)c4=O)CC3)[C@H](c3ccccc3)C2)COC1` [Example 139, 5-amino-6-(4-fluorophenoxy)-3-[[4-hydroxy-1-[(3R,4R)-1-[3-(2-methoxyphenyl)oxetan-3-yl]-3-phenyl-piperidine-4-carbonyl]-4-piperidyl]methyl]pyrimidin-4-one] showed an IC50 of 24.6 nM. For the same compound, the inhibition constant (Ki) in test [2] stood at 19 nM.

In test [1], `Nc1c(Oc2ccc(F)cc2)ncn(CC2(O)CCN(C(=O)[C@@H]3CCN(C4(c5ccccc5Cl)COC4)C[C@H]3c3ccccc3)CC2)c1=O` [Example 140, 5-amino-3-[[1-((3R,4R)-1-[3-(2-chlorophenyl)oxetan-3-yl]-3-phenyl-piperidine-4-carbonyl]-4-hydroxy-4-piperidyl]methyl]-6-(4-fluorophenoxy)pyrimidin-4-one] yielded an IC50 of 20 nM. This compound registered a Ki in test [2] of 12 nM.

`Cc1nccc(CN2CC[C@@H](C(=O)N3CC[C@](O)(Cn4cnc(Oc5cccc(C(F)(F)F)c5)c(N)c4=O)C(F)(F)C3)[C@H](c3ccccc3)C2)n1` [Example 143, 5-amino-3-[[(4S)-3,3-difluoro-4-hydroxy-1-[(3R,4R)-1-[(2-methylpyrimidin-4-yl)methyl]-3-phenyl-piperidine-4-carbonyl]-4-piperidyl]methyl]-6-(3-(trifluoromethyl)phenoxy]pyrimidin-4-one] came in with an IC50 in test [1] of 217 nM. Moreover, the Ki in test [2] worked out at 42 nM.

The compound `Cc1cnc(CN2CC[C@@H](C(=O)N3CC[C@](O)(Cn4cnc(Oc5cccc(C(F)(F)F)c5)c(N)c4=O)C(F)(F)C3)[C@H](c3ccccc3)C2)cn1` [Example 144, 5-amino-3-{[(4S)-3,3-difluoro-4-hydroxy-1-[(3R,4R)-1-((5-methylpyrazin-2-yl)methyl]-3-phenyl-piperidine-4-carbonyl]-4-piperidyl]methyl]-6-[3-(trifluoromethyl)phenoxy]pyrimidin-4-one] yielded a half-maximal inhibitory concentration (IC50) in test [1] of 80.2 nM. For the same compound, the affinity in test [2] corresponds to a Ki of 22 nM.

`Cc1nccc(CN2CC[C@@H](C(=O)N3CC[C@](O)(Cn4cnc(Oc5ccc(Cl)c(F)c5)c(N)c4=O)C(F)(F)C3)[C@H](c3ccccc3)C2)n1` [Example 147] displayed a half-inhibitory concentration (IC50) in test [1] of 48.7 nM. In test [2], the affinity corresponds to a Ki of 19 nM.

As for `Cc1cnc(CN2CC[C@@H](C(=O)N3CC[C@](O)(Cn4cnc(Oc5ccc(Cl)c(F)c5)c(N)c4=O)C(F)(F)C3)[C@H](c3ccccc3)C2)cn1` [Example 148, 5-amino-6-(4-chloro-3-fluoro-phenoxy)-3-[[(4S)-3,3-difluoro-4-hydroxy-1-[(3R,4R)-1-[(5-methylpyrazin-2-yl)methyl]-3-phenyl-piperidine-4-carbonyl]-4-piperidyl]methyl]pyrimidin-4-one], the IC50 in test [1] is 39.9 nM. Also, in test [2], the Ki was determined as 7.5 nM.

For the compound `COc1cc(Oc2ncn(C[C@@]3(O)CCN(C(=O)[C@@H]4CCN(Cc5ccnc(C)n5)C[C@H]4c4ccccc4)CC3(F)F)c(=O)c2N)ccc1F` [Example 149], in test [1], the midpoint of inhibition, the IC50, lay at 24.1 nM. For the same compound, in test [2], affinity was put at a Ki of 14 nM.
